Experimental data as given in patent US20230151003A1, “COMPOUNDS AND METHODS OF USE” (Exelixis, Inc., priority 2020, published 2023).

Key:
Format in all cases: biochemical
KDR = KDR (Homo sapiens, UniProt P35968); assay: Human KDR kinase assay (HTRF KinEase); design: Human KDR (residues 790-1356; CarnaBio, 0.1 ng/ well); purchased CarnaBio; settings: Table 2 Biological Activities, ATP at Km (4.0 μM)
Procedure: (§1) Kinase activity and compound inhibition were investigated using the HTRF® KinEase assay (Cisbio Cat #62TKOPEB) per manufacturer's instructions. In short, compounds were delivered in 300 nL volumes at 10 different concentrations in DMSO (3% final) to empty 384-well assay plates (Corning cat #3824). A mixture of enzyme, 1 μM biotynlated peptide substrate, and buffer in 10 μL volume was added. The assay was started upon the addition of ATP (at Km). The 10 μL reaction was incubated at room temperature. The reaction was stopped upon the addition of detection buffer containing streptavidin-XL665 (5 μL) and TK antibody-Eu3+ (5 μL). After a 60 min incubation at room temperature, the fluorescence at 665 nm and 620 nm was read on an Envision microplate reader (Perkin Elmer). Kinase activity normalized to DMSO (100% activity) and reference compound at 1 μM and (0% activity) was calculated using the fluorescence ratio […]. IC50 values were calculated by nonlinear regression analysis using a 4-parameter logistic curve fit in ActivityBase XE (IDBS).
(§2) Human KDR (residues 790-1356; CarnaBio, 0.1 ng/ well) was incubated with enzymatic buffer (Cisbio) supplemented with 5 mM MgCl2, 1 mM MnCl2, and 1 mM DTT. The mixture was added to the pre-plated compounds. The reaction was initiated upon addition of ATP at Km (4.0 μM). The reaction was incubated at room temperature for 40 min and stopped upon the addition of SA-XL665 and TK-antibody both diluted in EDTA-containing kinase detection buffer (Cisbio). The kinase activity was calculated as stated above and the IC50 values were reported.

Human MER = target: T1, Human MER (Homo sapiens, UniProt Q12866); assay: Human MER kinase assay (HTRF KinEase); settings: Table 2 Biological Activities, ATP at Km (40 μM)
T1 construct: Human MER (residues 528-999; CarnaBio, 1 ng/ well); purchased CarnaBio
T1 sequence (Q12866 528-999): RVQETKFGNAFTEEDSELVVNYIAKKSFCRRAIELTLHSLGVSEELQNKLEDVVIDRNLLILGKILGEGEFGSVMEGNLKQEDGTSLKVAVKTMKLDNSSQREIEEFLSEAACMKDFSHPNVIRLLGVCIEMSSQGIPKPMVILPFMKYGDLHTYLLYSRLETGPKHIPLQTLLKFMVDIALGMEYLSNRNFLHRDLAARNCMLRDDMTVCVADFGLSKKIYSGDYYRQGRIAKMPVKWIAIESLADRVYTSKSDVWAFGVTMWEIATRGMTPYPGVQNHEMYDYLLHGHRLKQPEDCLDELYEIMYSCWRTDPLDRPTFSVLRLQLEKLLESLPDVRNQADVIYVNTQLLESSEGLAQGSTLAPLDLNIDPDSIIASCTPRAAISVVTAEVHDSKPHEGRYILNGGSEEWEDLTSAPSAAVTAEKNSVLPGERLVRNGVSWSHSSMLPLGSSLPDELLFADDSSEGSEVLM
Procedure: as §1
as §2, with “MER” for “KDR”, “528-999;” for “790-1356;”, “1” for “0.1”, “MgCl2” for “MgCl2, 1 mM MnCl2,”, “(40” for “(4.0”, “60” for “40”

Met = Met (Homo sapiens, UniProt P08581); assay: Human MET kinase assay (HTRF KinEase); design: Human MET (residues 956-1390; CarnaBio, 0.1 ng/ well); purchased CarnaBio; settings: Table 2 Biological Activities, ATP at Km (3.0 μM), read-out: c-Met IC50
Procedure: as §1
as §2, with “MET” for “KDR”, “956-1390;” for “790-1356;”, “DTT” for “MnCl2,”, “MnCl2.” for “DTT.”, “(3.0” for “(4.0”

Human AXL = target: T2, Human AXL (Homo sapiens, UniProt P30530); assay: Human AXL kinase assay (HTRF KinEase); settings: Table 2 Biological Activities, ATP at Km (1.0 μM)
T2 construct: Human AXL (residues 464-885; CarnaBio, 1 ng/ well); purchased CarnaBio
T2 sequence (P30530 464-885 isoform P30530-2): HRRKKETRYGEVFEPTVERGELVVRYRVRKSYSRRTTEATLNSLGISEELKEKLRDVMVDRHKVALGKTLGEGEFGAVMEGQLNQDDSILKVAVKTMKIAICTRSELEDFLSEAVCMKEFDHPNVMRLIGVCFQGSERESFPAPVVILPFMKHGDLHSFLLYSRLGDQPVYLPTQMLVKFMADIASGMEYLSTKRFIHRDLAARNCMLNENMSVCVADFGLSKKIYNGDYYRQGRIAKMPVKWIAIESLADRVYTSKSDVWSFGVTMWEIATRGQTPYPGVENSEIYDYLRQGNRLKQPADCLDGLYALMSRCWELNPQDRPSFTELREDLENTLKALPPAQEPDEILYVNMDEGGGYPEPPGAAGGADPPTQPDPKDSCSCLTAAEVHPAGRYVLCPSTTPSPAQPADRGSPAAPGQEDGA
Procedure: as §1
Human AXL (residues 464-885; CarnaBio, 1 ng/ well) was incubated with enzymatic buffer (Cisbio) supplemented with 5 mM MgCl2, 1 mM DTT, and Supplemental Enzymatic Buffer (SEB; Cisbio). The mixture was added to the pre-plated compounds. The reaction was initiated upon addition of ATP at Km (1.0 μM). The reaction was incubated at room temperature for 50 min and stopped upon the addition of SA-XL665 and TK-antibody both diluted in EDTA-containing kinase detection buffer (Cisbio). The kinase activity was calculated as stated above and the IC50 values were reported.

Chain of Met (P08581 956-1390): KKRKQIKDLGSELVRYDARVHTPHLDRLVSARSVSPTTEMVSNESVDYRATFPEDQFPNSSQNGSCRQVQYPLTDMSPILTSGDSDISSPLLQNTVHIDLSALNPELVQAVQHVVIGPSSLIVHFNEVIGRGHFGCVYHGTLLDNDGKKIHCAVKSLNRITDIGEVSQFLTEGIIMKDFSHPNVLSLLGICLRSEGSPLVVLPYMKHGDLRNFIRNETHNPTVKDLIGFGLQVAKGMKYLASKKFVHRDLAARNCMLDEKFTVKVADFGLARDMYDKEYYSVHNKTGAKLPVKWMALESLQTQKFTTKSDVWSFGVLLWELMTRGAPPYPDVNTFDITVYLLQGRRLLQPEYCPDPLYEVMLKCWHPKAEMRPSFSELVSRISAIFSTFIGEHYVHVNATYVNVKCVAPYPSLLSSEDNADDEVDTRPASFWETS
Chain of KDR (P35968 790-1356): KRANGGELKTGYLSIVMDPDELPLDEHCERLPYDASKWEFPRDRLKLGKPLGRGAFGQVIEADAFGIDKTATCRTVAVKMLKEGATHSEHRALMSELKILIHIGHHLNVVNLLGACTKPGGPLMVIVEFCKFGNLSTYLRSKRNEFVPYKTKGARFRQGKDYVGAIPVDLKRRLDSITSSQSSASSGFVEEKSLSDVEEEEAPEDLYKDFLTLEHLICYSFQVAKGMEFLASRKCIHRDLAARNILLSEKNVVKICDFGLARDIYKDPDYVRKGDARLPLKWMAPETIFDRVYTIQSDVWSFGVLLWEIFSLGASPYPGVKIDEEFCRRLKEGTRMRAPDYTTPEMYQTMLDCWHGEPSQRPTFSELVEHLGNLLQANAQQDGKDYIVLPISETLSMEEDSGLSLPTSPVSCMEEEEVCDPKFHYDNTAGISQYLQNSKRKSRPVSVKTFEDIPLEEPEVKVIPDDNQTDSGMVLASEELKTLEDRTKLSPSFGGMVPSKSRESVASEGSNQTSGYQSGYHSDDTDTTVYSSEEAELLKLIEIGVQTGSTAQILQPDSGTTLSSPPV

COc1cc2nccc(Oc3ccc(NC(=O)c4cc(C(C)=O)c(C)n(-c5ccc(F)cn5)c4=O)cc3F)c2nc1OC [Compound 59, 5-Acetyl-N-[4-[(6,7-dimethoxy-1,5-naphthyridin-4-yl)oxy]-3-fluorophenyl]-1-(5-fluoropyridin-2-yl)-6-methyl-2-oxopyridine-3-carboxamide]
IC50 (KDR): 300 to 1000 nM | IC50 (Human MER): ≤ 100 nM | IC50 (Met): ≤ 100 nM | IC50 (Human AXL): ≤ 100 nM

COc1cc2nccc(Oc3ccc(NC(=O)c4cn(C)c(C)c(-c5ccc(F)cn5)c4=O)cc3)c2nc1OC [Compound 86, N-[4-[(6,7-Dimethoxy-1,5-naphthyridin-4-yl)oxy]phenyl]-5-(5-fluoropyridin-2-yl)-1,6-dimethyl-4-oxopyridine-3-carboxamide]
IC50 (KDR): 300 to 1000 nM | IC50 (Human MER): ≤ 100 nM | IC50 (Met): ≤ 100 nM | IC50 (Human AXL): ≤ 100 nM

COc1cc2nccc(Oc3ccc(NC(=O)c4ccc(C)n(-c5ccc(F)cn5)c4=O)cc3F)c2nc1OC [Compound 43, N-[4-[(6,7-Dimethoxy-1,5-naphthyridin-4-yl)oxy]-3-fluorophenyl]-1-(5-fluoropyridin-2-yl)-6-methyl-2-oxopyridine-3-carboxamide]
IC50 (KDR): ≤ 100 nM | IC50 (Human MER): ≤ 100 nM | IC50 (Met): ≤ 100 nM | IC50 (Human AXL): ≤ 100 nM

COc1cc2nccc(Oc3ccc(NC(=O)c4cnc(C)c(-c5ccc(F)cn5)c4O)cc3F)c2nc1OC [Compound 85, N-[4-[(6,7-Dimethoxy-1,5-naphthyridin-4-yl)oxy]-3-fluorophenyl]-5-(5-fluoropyridin-2-yl)-4-hydroxy-6-methylpyridine-3-carboxamide]
IC50 (KDR): ≤ 100 nM | IC50 (Human MER): ≤ 100 nM | IC50 (Met): ≤ 100 nM | IC50 (Human AXL): ≤ 100 nM

COc1cnc2c(Oc3ccc(NC(=O)c4ccc(C)n(-c5ncc(F)cc5C)c4=O)cc3F)ccnc2c1 [Compound 52, N-[3-Fluoro-4-[(7-methoxy-1,5-naphthyridin-4-yl)oxy]phenyl]-1-(5-fluoro-3-methylpyridin-2-yl)-6-methyl-2-oxopyridine-3-carboxamide]
IC50 (KDR): 300 to 1000 nM | IC50 (Human MER): ≤ 100 nM | IC50 (Met): ≤ 100 nM | IC50 (Human AXL): ≤ 100 nM

COc1cc2nccc(Oc3ccc(NC(=O)c4c(C)ccn(-c5ccc(F)cn5)c4=O)cc3F)c2nc1OC [Compound 41, N-[4-[(6,7-Dimethoxy-1,5-naphthyridin-4-yl)oxy]-3-fluorophenyl]-1-(5-fluoropyridin-2-yl)-4-methyl-2-oxopyridine-3-carboxamide]
IC50 (KDR): ≤ 100 nM | IC50 (Human MER): ≤ 100 nM | IC50 (Met): ≤ 100 nM | IC50 (Human AXL): ≤ 100 nM

COc1cnc2c(Oc3ccc(NC(=O)c4ccc(C)n(-c5ccc(F)cn5)c4=O)cc3F)ccnc2c1 [Compound 45, N-[3-Fluoro-4-[(7-methoxy-1,5-naphthyridin-4-yl)oxy]phenyl]-1-(5-fluoropyridin-2-yl)-6-methyl-2-oxopyridine-3-carboxamide]
IC50 (KDR): 100 to 300 nM | IC50 (Human MER): ≤ 100 nM | IC50 (Met): ≤ 100 nM | IC50 (Human AXL): ≤ 100 nM

COc1ccc2nccc(Oc3ccc(NC(=O)c4ccc(C)n(-c5ncc(F)cc5C)c4=O)cc3F)c2n1 [Compound 53, N-[3-Fluoro-4-[(6-methoxy-1,5-naphthyridin-4-yl)oxy]phenyl]-1-(5-fluoro-3-methylpyridin-2-yl)-6-methyl-2-oxopyridine-3-carboxamide]
IC50 (KDR): 300 to 1000 nM | IC50 (Human MER): ≤ 100 nM | IC50 (Met): ≤ 100 nM | IC50 (Human AXL): ≤ 100 nM

COc1cc2nccc(Oc3ccc(NC(=O)c4ccc(C)n(-c5ccc(F)cn5)c4=O)cc3)c2nc1OC [Compound 44, N-[4-[(6,7-Dimethoxy-1,5-naphthyridin-4-yl)oxy]phenyl]-1-(5-fluoropyridin-2-yl)-6-methyl-2-oxopyridine-3-carboxamide]
IC50 (KDR): ≤ 100 nM | IC50 (Human MER): ≤ 100 nM | IC50 (Met): ≤ 100 nM | IC50 (Human AXL): ≤ 100 nM
